Measured values reported in patent US11472808B2, “Substituted pyrrolo[1,2-c]pyrimidines as hepatitis B antiviral agents” (Enanta Pharmaceuticals, Inc., priority 2019, dated 2022).

System: HBV
Test: HepAD38 anti-HBV assay: reduction of viral product accumulation (virion DNA qPCR, HBsAg/HBeAg ELISA)
Assay type: cell-based
Conditions: Hepatitis B virus, 120 h; HepAD38 cells; concentration reducing viral product accumulation by 50% relative to no drug controls; harvest five days after compound addition; read-out: HepAD38 EC50
Method in brief: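 Tetracycline-free HepAD38 cells treated 5 days with compound (1:200 DMSO dilution), or 8 days with media and compound refreshed on d2 and d5. Virion DNA quantified by qPCR; HBsAg or HBeAg by ELISA. EC50 is the concentration reducing viral product accumulation 50% versus no-drug controls.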

| SMILES | EC50 |
| --- | --- |
| O=C1N(CC#Cc2ccccc2)CCN1[C@H]1CC2=C(c3ccn(C(F)F)n3)[C@H](c3ccc(F)cc3Cl)N=C(c3nccs3)N2C1 [Example 48] | > 0.4 µM |
| O=C(N[C@H]1CC2=C(c3ccn(C(F)F)n3)[C@H](c3ccc(F)cc3Cl)N=C(c3nccs3)N2C1)O[C@H]1C[C@H](O)C1 [Example 255] | 0.1 to 0.4 µM |
| O=C(O)[C@H]1C[C@H](S(=O)(=O)N[C@H]2CC3=C(c4ccn(C(F)F)n4)[C@H](c4ccc(F)cc4Cl)N=C(c4nccs4)N3C2)C1 [Example 16] | > 0.4 µM |
| O=S(=O)(N[C@H]1CC2=C(c3ccn(C(F)F)n3)[C@H](c3ccc(F)cc3Cl)N=C(c3nccs3)N2C1)N1CCC[C@H]1C(F)(F)F [Example 281] | < 0.1 µM |
| CCNC(=O)N[C@H]1CC2=C(c3ccn(C(F)F)n3)[C@H](c3ccc(F)cc3Cl)N=C(c3nccs3)N2C1 [Example 203] | < 0.1 µM |
| Fc1ccc([C@@H]2N=C(c3nccs3)N3C[C@@H](Nc4cccc(-c5ccccn5)c4)CC3=C2c2ccn(C(F)F)n2)c(Cl)c1 [Example 331] | 0.1 to 0.4 µM |
| O=C(Nc1ccccc1)N1CCN([C@H]2CC3=C(c4ccn(C(F)F)n4)[C@H](c4ccc(F)cc4Cl)N=C(c4nccs4)N3C2)CC1 [Example 49] | > 0.4 µM |
| COC(=O)N[C@H]1CC2=C(c3ccn(C(F)F)n3)[C@H](c3ccc(F)cc3Cl)N=C(c3nccs3)N2C1 [Example 198] | < 0.1 µM |
| COC(=O)OC[C@]1(F)CC2=C(c3ccn(C(F)F)n3)[C@H](c3ccc(F)cc3Cl)N=C(c3nccs3)N2C1 [Example 182] | 0.1 to 0.4 µM |
| CONC[C@]1(O)CC2=C(c3ccn(C(F)F)n3)[C@H](c3ccc(F)cc3Cl)N=C(c3nccs3)N2C1 [Example 127] | > 0.4 µM |
| O=S(=O)(CCN1CCCCC1)N[C@H]1CC2=C(c3ccn(C(F)F)n3)[C@H](c3ccc(F)cc3Cl)N=C(c3nccs3)N2C1 [Example 55] | 0.1 to 0.4 µM |
| CC1(C)CCCCN1S(=O)(=O)N[C@H]1CC2=C(c3ccn(C(F)F)n3)[C@H](c3ccc(F)cc3Cl)N=C(c3nccs3)N2C1 [Example 295] | < 0.1 µM |
| O=S(=O)(Nc1ccncc1)N[C@H]1CC2=C(c3ccn(C(F)F)n3)[C@H](c3ccc(F)cc3Cl)N=C(c3nccs3)N2C1 [Example 83] | 0.1 to 0.4 µM |
| O=C(O)c1ccc(C#CCN2CCN([C@H]3CC4=C(c5ccn(C(F)F)n5)[C@H](c5ccc(F)cc5Cl)N=C(c5nccs5)N4C3)C2=O)cc1 [Example 43] | > 0.4 µM |
| O=C(NC[C@@]1(F)CC2=C(c3ccn(C(F)F)n3)[C@H](c3ccc(F)cc3Cl)N=C(c3nccs3)N2C1)OCc1ccccc1 [Example 187] | > 0.4 µM |
| C[C@H]1CN(S(=O)(=O)N[C@H]2CC3=C(c4ccn(C(F)F)n4)[C@H](c4ccc(F)cc4Cl)N=C(c4nccs4)N3C2)C[C@@H]1C [Example 300] | < 0.1 µM |
| O=C(O)c1ccc(S(=O)(=O)N[C@H]2CC3=C(c4ccn(C(F)F)n4)[C@H](c4ccc(F)cc4Cl)N=C(c4nccs4)N3C2)cc1 [Example 6] | < 0.1 µM |
| COC(=O)c1ccccc1S(=O)(=O)NC[C@@]1(F)CC2=C(c3ccn(C(F)F)n3)[C@H](c3ccc(F)cc3Cl)N=C(c3nccs3)N2C1 [Example 188] | > 0.4 µM |
| O=S(=O)(NC(CO)c1ccccn1)N[C@H]1CC2=C(c3ccn(C(F)F)n3)[C@H](c3ccc(F)cc3Cl)N=C(c3nccs3)N2C1 (stereo partly shown) [Example 338] | < 0.1 µM |
| O=S(=O)(CCN1CCCC1)N[C@H]1CC2=C(c3ccn(C(F)F)n3)[C@H](c3ccc(F)cc3Cl)N=C(c3nccs3)N2C1 [Example 54] | 0.1 to 0.4 µM |

| SMILES | EC50 |
| --- | --- |
| OCCOC[C@@]1(O)CC2=C(c3ccn(C(F)F)n3)[C@H](c3ccc(F)cc3Cl)N=C(c3nccs3)N2C1 [Example 111] | > 0.4 µM |
| CCOC(=O)/C=C/[C@]1(F)CC2=C(c3ccn(C(F)F)n3)[C@H](c3ccc(F)cc3Cl)N=C(c3nccs3)N2C1 [Example 172] | 0.1 to 0.4 µM |
| O=S(=O)(N[C@H]1CC2=C(c3ccn(C(F)F)n3)[C@H](c3ccc(F)cc3Cl)N=C(c3nccs3)N2C1)c1ccc(-c2ccccn2)s1 [Example 400] | < 0.1 µM |
| O=S(=O)(N[C@H]1CC2=C(c3ccn(C(F)F)n3)[C@H](c3ccc(F)cc3Cl)N=C(c3nccs3)N2C1)N1CCCC1c1ccccn1 (stereo partly shown) [Example 288] | < 0.1 µM |
| CC(C)(C)[Si](C)(C)OCC1(F)CC2=C(c3ccn(C(F)F)n3)[C@H](c3ccc(F)cc3Cl)N=C(c3nccs3)N2C1 (stereo partly shown) [Example 164] | > 0.4 µM |
| CC[C@@H](NS(=O)(=O)N[C@H]1CC2=C(c3ccn(C(F)F)n3)[C@H](c3ccc(F)cc3Cl)N=C(c3nccs3)N2C1)c1ccccn1 [Example 352] | 0.1 to 0.4 µM |
| COC(=O)c1cc(S(=O)(=O)N[C@H]2CC3=C(c4ccn(C(F)F)n4)[C@H](c4ccc(F)cc4Cl)N=C(c4nccs4)N3C2)c(C)cc1F [Example 26] | > 0.4 µM |
| C=CS(=O)(=O)N[C@H]1CC2=C(c3ccn(C(F)F)n3)[C@H](c3ccc(F)cc3Cl)N=C(c3nccs3)N2C1 [Example 50] | 0.1 to 0.4 µM |
| O=C(O)c1cccc(S(=O)(=O)NC[C@@]2(O)CC3=C(c4ccn(C(F)F)n4)[C@H](c4ccc(F)cc4Cl)N=C(c4nccs4)N3C2)c1 [Example 133] | > 0.4 µM |
| O=C(O)c1cccc(S(=O)(=O)NC[C@]2(O)CC3=C(c4ccn(C(F)F)n4)[C@H](c4ccc(F)cc4Cl)N=C(c4nccs4)N3C2)c1 [Example 132] | > 0.4 µM |
| O=S(=O)(C[C@@H]1CC2=C(c3ccn(C(F)F)n3)[C@H](c3ccc(F)cc3Cl)N=C(c3nccs3)N2C1)N1CCCCC1 [Example 298] | 0.1 to 0.4 µM |
| CCCNS(=O)(=O)N[C@H]1CC2=C(c3ccn(C(F)F)n3)[C@H](c3ccc(F)cc3Cl)N=C(c3nccs3)N2C1 [Example 77] | < 0.1 µM |
| C=CCN(C[C@@]1(O)CC2=C(c3ccn(C(F)F)n3)[C@H](c3ccc(F)cc3Cl)N=C(c3nccs3)N2C1)S(C)(=O)=O [Example 128] | > 0.4 µM |
| Cc1ccc(C(=O)O)cc1S(=O)(=O)N[C@H]1CC2=C(c3ccn(C(F)F)n3)[C@H](c3ccc(F)cc3Cl)N=C(c3nccs3)N2C1 [Example 28] | 0.1 to 0.4 µM |
| O=C(NCC(O)c1ccccn1)N[C@H]1CC2=C(c3ccn(C(F)F)n3)[C@H](c3ccc(F)cc3Cl)N=C(c3nccs3)N2C1 (stereo partly shown) [Example 218] | > 0.4 µM |
| O=C(O)C1CCN(C(=O)N[C@H]2CC3=C(c4ccn(C(F)F)n4)[C@H](c4ccc(F)cc4Cl)N=C(c4nccs4)N3C2)CC1 [Example 212] | 0.1 to 0.4 µM |
| O=C(N[C@H]1CC2=C(c3ccn(C(F)F)n3)[C@H](c3ccc(F)cc3Cl)N=C(c3nccs3)N2C1)c1ccncc1 [Example 231] | < 0.1 µM |
| CCOC(=O)CN([C@H]1CC2=C(c3ccn(C(F)F)n3)[C@H](c3ccc(F)cc3Cl)N=C(c3nccs3)N2C1)S(=O)(=O)c1cnn(CC(=O)OCC)c1 [Example 39] | > 0.4 µM |
| O=C(Cc1ccccn1)N[C@H]1CC2=C(c3ccn(C(F)F)n3)[C@H](c3ccc(F)cc3Cl)N=C(c3nccs3)N2C1 [Example 326] | 0.1 to 0.4 µM |
| CS(=O)(=O)N1CCN(C(=O)N[C@H]2CC3=C(c4ccn(C(F)F)n4)[C@H](c4ccc(F)cc4Cl)N=C(c4nccs4)N3C2)CC1 [Example 222] | 0.1 to 0.4 µM |

| SMILES | EC50 |
| --- | --- |
| O=C(N[C@H]1CC2=C(c3ccn(C(F)F)n3)[C@H](c3ccc(F)cc3Cl)N=C(c3nccs3)N2C1)N1CCC(O)(CO)CC1 [Example 241] | 0.1 to 0.4 µM |
| O=S(=O)(Nc1ccc(-c2ccccn2)cc1)N[C@H]1CC2=C(c3ccn(C(F)F)n3)[C@H](c3ccc(F)cc3Cl)N=C(c3nccs3)N2C1 [Example 346] | < 0.1 µM |
| CC(C)OC(=O)N[C@H]1CC2=C(c3ccn(C(F)F)n3)[C@H](c3ccc(F)cc3Cl)N=C(c3nccs3)N2C1 [Example 202] | < 0.1 µM |
| C=CC1(F)CC2=C(c3ccn(C(F)F)n3)[C@H](c3ccc(F)cc3Cl)N=C(c3nccs3)N2C1 (stereo partly shown) [Example 171] | 0.1 to 0.4 µM |
| O=C(N[C@H]1CC2=C(c3ccn(C(F)F)n3)[C@H](c3ccc(F)cc3Cl)N=C(c3nccs3)N2C1)N1CCCCC1 [Example 206] | 0.1 to 0.4 µM |
| O=C(Nc1ccc(F)c(F)c1)c1cccc(S(=O)(=O)N[C@H]2CC3=C(c4ccn(C(F)F)n4)[C@H](c4ccc(F)cc4Cl)N=C(c4nccs4)N3C2)c1 [Example 422] | 0.1 to 0.4 µM |
| CC(C)(C)OC(=O)Nc1cccc(S(=O)(=O)N[C@H]2CC3=C(c4ccn(C(F)F)n4)[C@H](c4ccc(F)cc4Cl)N=C(c4nccs4)N3C2)n1 [Example 382] | 0.1 to 0.4 µM |
| COCCOC[C@]1(O)CC2=C(c3ccn(C(F)F)n3)[C@H](c3ccc(F)cc3Cl)N=C(c3nccs3)N2C1 [Example 113] | > 0.4 µM |
| CSC[C@]1(O)CC2=C(c3ccn(C(F)F)n3)[C@H](c3ccc(F)cc3Cl)N=C(c3nccs3)N2C1 [Example 143] | 0.1 to 0.4 µM |
| COC(=O)CS(=O)(=O)N[C@H]1CC2=C(c3ccn(C(F)F)n3)[C@H](c3ccc(F)cc3Cl)N=C(c3nccs3)N2C1 [Example 12] | 0.1 to 0.4 µM |
| CC(C)(CNS(=O)(=O)N[C@H]1CC2=C(c3ccn(C(F)F)n3)[C@H](c3ccc(F)cc3Cl)N=C(c3nccs3)N2C1)c1ccccn1 [Example 315] | 0.1 to 0.4 µM |
| O=C(N[C@H]1CC2=C(c3ccn(C(F)F)n3)[C@H](c3ccc(F)cc3Cl)N=C(c3nccs3)N2C1)N1CCC(O)(c2ncc(C3CC3)s2)CC1 [Example 246] | 0.1 to 0.4 µM |
| CSC[C@@]1(O)CC2=C(c3ccn(C(F)F)n3)[C@H](c3ccc(F)cc3Cl)N=C(c3nccs3)N2C1 [Example 142] | > 0.4 µM |
| O=C(O)CC1CCN(CCS(=O)(=O)N[C@H]2CC3=C(c4ccn(C(F)F)n4)[C@H](c4ccc(F)cc4Cl)N=C(c4nccs4)N3C2)CC1 [Example 63] | > 0.4 µM |
| O=S(=O)(NCC1(c2ccccn2)CC1)N[C@H]1CC2=C(c3ccn(C(F)F)n3)[C@H](c3ccc(F)cc3Cl)N=C(c3nccs3)N2C1 [Example 316] | 0.1 to 0.4 µM |
| O=S(=O)(NCC(O)c1ccccn1)N[C@H]1CC2=C(c3ccn(C(F)F)n3)[C@H](c3ccc(F)cc3Cl)N=C(c3nccs3)N2C1 (stereo partly shown) [Example 308] | < 0.1 µM |
| CS(=O)(=O)CCS(=O)(=O)N[C@H]1CC2=C(c3ccn(C(F)F)n3)[C@H](c3ccc(F)cc3Cl)N=C(c3nccs3)N2C1 [Example 328] | < 0.1 µM |
| CC(=O)OCCCCS(=O)(=O)N[C@H]1CC2=C(c3ccn(C(F)F)n3)[C@H](c3ccc(F)cc3Cl)N=C(c3nccs3)N2C1 [Example 279] | < 0.1 µM |
